Common to all, as to test: NCI-60 cell line screen, 48 h
The test system of experiment [1] is A498.
Experiment [2] deals with COLO 205.
For experiment [3], the system named is DU-145.
Experiment [4] relates to HCC 2998.
In experiment [5] the test system is HOP-62.
Experiment [6] deals with HOP-92.
In experiment [7] the test system is HT-29.
The subject of experiment [8] is M14.
Experiment [9] deals with MCF7.
For experiment [10], the system named is Malme-3M.
For experiment [11], the system named is NCI/ADR-RES.
Experiment [12] has as its system OVCAR-5.
Experiment [13] relates to SK-MEL-28.
Experiment [14] concerns SK-MEL-2.
Experiment [15] relates to SK-OV-3.
Experiment [16] deals with U-251.
Experiment [17] has as its system SR.
In experiment [18] the test system is T47D.

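Grown in 96-well plates, cells were treated for 48 hours with each compound at five concentrations. Insufficient inhibition: endpoint recorded as highest concentration tested. The concentration for 50% growth inhibition is given as GI50.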 Calls of active or inactive are those of the source. No stated cut-off is given here; in the data, active = GI50 up to about 1.1 µM and inactive = higher.

As for `COc1ccc(-c2nnc(CCCCCCCCc3nnc(-c4ccc(OC)cc4)o3)o2)cc1`, the GI50 in experiment [1] is 44.4 µM (inactive); in experiment [2] it was > 100 µM (inactive); in experiment [3] it was > 100 µM (inactive); in experiment [4] it was > 100 µM (inactive); in [5], 25.4 µM (inactive); in experiment [6] it was 41.1 µM (inactive). The GI50 in experiment [7], in experiment [8], in experiment [9], in experiment [10], in experiment [11] and in experiment [12] was > 100 µM (inactive) in each case. Further, the GI50 is > 100 µM (inactive) in experiment [13], > 100 µM (inactive) in experiment [14], 54.2 µM (inactive) in experiment [15] and 27.6 µM (inactive) in experiment [16].

For `CC(C)C/C(CC(=O)CCC(=O)Nc1ccccc1[N+](=O)[O-])=N\NC(=O)c1cc2ccccc2cc1O`, the GI50 in [1] is 0.0357 µM (active); in experiment [2] it was 28.6 µM (inactive); in experiment [4] it was 36.6 µM (inactive); in [5], 57.3 µM (inactive); in experiment [6], 64 µM (inactive); in [7] it was 91.2 µM (inactive). In addition, the GI50 in experiment [8] was 26.6 µM (inactive); in [10], 42.6 µM (inactive); in experiment [12], 31 µM (inactive); in [13], > 100 µM (inactive); in [15], 79.6 µM (inactive); in experiment [17], 30.2 µM (inactive). The GI50 in experiment [16] is 39.2 µM (inactive).

For the compound `O=c1c2ccccc2nc(-c2ccccc2)n1NC(=S)Nc1ccc(Cl)cc1`, the GI50 in experiment [1] is > 100 µM (inactive); in experiment [2], > 100 µM (inactive); in experiment [5] it was > 100 µM (inactive); in experiment [6], > 100 µM (inactive); in experiment [7], 53.8 µM (inactive); in experiment [8], > 100 µM (inactive). Besides, the GI50 is > 100 µM (inactive) in experiment [10]; > 100 µM (inactive) in experiment [12]; 24.1 µM (inactive) in experiment [13]; > 100 µM (inactive) in experiment [14]; > 100 µM (inactive) in [15]; 65.9 µM (inactive) in experiment [17]. Besides, the GI50 in [16] was > 100 µM (inactive).

Regarding `CCN1CCC(O)(/C=C/c2ccc(OC)cc2)C(C(=O)/C=C/c2ccc(OC)cc2)C1` (configuration not stated), the GI50 in experiment [1] is 13.3 µM (inactive); in experiment [2] it was 4.2 µM (inactive); in experiment [3] it was 10.9 µM (inactive); in experiment [4] it was 14.9 µM (inactive); in experiment [5], 18.2 µM (inactive); in [6] it was 9.48 µM (inactive). The GI50 in experiment [7] is 7.16 µM (inactive); in experiment [8], 15.5 µM (inactive); in [9], 3.08 µM (inactive); in [10], 17.1 µM (inactive); in [11], 6.15 µM (inactive); in [12] it was 15.2 µM (inactive). Moreover, the GI50 was 12 µM (inactive) in experiment [13]; 10.6 µM (inactive) in experiment [15]; 3.46 µM (inactive) in [17]; 6.04 µM (inactive) in [18]; 6.34 µM (inactive) in [16].

Take `CCOC12SC(Nc3ccc(C)cc3)=NN1C(=S)N(C)N=C2C` (configuration not stated): the GI50 in experiment [1], in experiment [2], in experiment [5], in [6], in [7] and in experiment [8] was > 100 µM (inactive) in each case. The GI50 in experiment [12], in experiment [13], in [17] and in experiment [16] was > 100 µM (inactive) in each case.

As for `N#Cc1c2ccccc2cn1-c1ccc(F)cc1`, the GI50 in experiment [2] was 26.2 µM (inactive); in experiment [4] it was 43.9 µM (inactive); in experiment [5], 23 µM (inactive); in experiment [6], 20.6 µM (inactive); in experiment [7], 23.5 µM (inactive); in experiment [8], 35.2 µM (inactive). In addition, the GI50 in experiment [10] was 33.7 µM (inactive); in experiment [12], 45.6 µM (inactive); in experiment [13], 47.8 µM (inactive); in experiment [14] it was > 10 µM (inactive); in experiment [17] it was > 10 µM (inactive); in [16], 39.1 µM (inactive).

Turning to `O=[N+]([O-])c1ccc(OCc2nnc(CCCCCCCCc3nnc(COc4ccc([N+](=O)[O-])cc4)o3)o2)cc1`, the GI50 in [1], in experiment [2], in experiment [3], in experiment [4], in [6] and in experiment [7] was > 100 µM (inactive) each time. Moreover, the GI50 in experiment [8], in experiment [9], in experiment [10], in [11], in experiment [12] and in experiment [13] was > 100 µM (inactive) in each case. The GI50 in experiment [14] was > 100 µM (inactive); in experiment [15], 40.6 µM (inactive); in experiment [16], 95.9 µM (inactive).

In the case of `COC(=O)C1=C(CCCCO[Si](C)(C)C(C)(C)C)NC(=O)N2[C@H](CCOCc3ccccc3)CC[C@@H]12`, the GI50 was > 100 µM (inactive) in experiment [1]; 27.9 µM (inactive) in [2]; 75.2 µM (inactive) in [3]; > 100 µM (inactive) in [4]; > 100 µM (inactive) in experiment [5]; 32.1 µM (inactive) in [6]. Also, the GI50 was 58.3 µM (inactive) in experiment [8]; 34.4 µM (inactive) in experiment [9]; 40 µM (inactive) in experiment [10]; 32.7 µM (inactive) in experiment [11]; > 100 µM (inactive) in experiment [12]; > 100 µM (inactive) in experiment [13]. The GI50 in [14] was 75.3 µM (inactive); in [15] it was > 100 µM (inactive); in experiment [18] it was 35.4 µM (inactive); in [16], 23.7 µM (inactive).

Turning to `Cc1cc2c(c3nocc13)C(=O)c1ccccc1C2=O`, the GI50 is > 100 µM (inactive) in [2]; > 100 µM (inactive) in experiment [4]; > 100 µM (inactive) in experiment [5]; 16.2 µM (inactive) in experiment [6]; > 100 µM (inactive) in experiment [7]; > 100 µM (inactive) in experiment [8]. Further, the GI50 in [10], in experiment [12], in [13], in experiment [14], in experiment [15] and in experiment [16] was > 100 µM (inactive) in each case.

In the case of `CC1CSc2nc3nc(S)nc-3c(O)n2C1` (configuration not stated), the GI50 in experiment [1], in [2], in experiment [3], in experiment [4], in [5] and in experiment [9] was > 100 µM (inactive) throughout. The GI50 in experiment [10], in experiment [11], in experiment [12], in experiment [13], in experiment [15] and in [18] was > 100 µM (inactive) in each case. In addition, in experiment [16], the GI50 was > 100 µM (inactive).
